Measured values reported in article PMC4882559, “Novel Azetidine-Containing TZT-1027 Analogues as Antitumor Agents” (Marine Drugs, 2016).
Converted amounts (≈) assume the structure as drawn. “Also recorded” adds a separate entry of the source.

What was measured:
[1] = system: Human A549 xenograft; experiment: In vivo efficacy study, A549 xenograft model; parameters: species or system BALB/c athymic mice; settings: for Tumor volume: n = 6, mean (SD on next line); for Relative tumor volume: RTV = Vt/V0, n = 6, mean ± SD
Excerpt: Pathogen-free, 4–6 week-old, female BALB/c athymic mice (Shanghai SCXK Laboratory Animal Technology Co. Ltd., Shanghai, China) were housed under sterile conditions. Human A549 xenograft was established in the right flanks of athymic mice according to the protocol of the National Cancer Institute. When the tumor reached a volume of 100 mm^3, the mice were randomly assigned into control (n = 6 per group) and treatment groups (n = 6 per group). Control group were given lactate buffer, and treatment groups were iv administered with tested compounds. The size of tumor was measured individually on the indicated days. Tumor volume (V) was calculated as V = (length × width^2)/2. The individual relative tumor volume (RTV) was calculated as follows: RTV = Vt/V0, where Vt represented the last tumor size measurement and V0 represented the pre-dosing tumor size measurement. The animal experimental protocols were approved by the Animal Ethics Committee of School of Pharmacy, Fudan University and the mice were treated in accordance with international animal ethics guidelines.

[2] = Liver microsomes metabolic stability, rat
[3] = Liver microsomes metabolic stability, mouse
[4] = Liver microsomes metabolic stability, human
[5] = system: HCT116 human colon cancer cells; experiment: Cancer cell proliferation inhibition (MTT assay), HCT116; assay type: cell-based; settings: 72 h incubation, mean ± SD of at least three independent experiments
Protocol: The following cell lines were used for the screening stage, obtained from American Type Culture Collection (ATCC, Manassas, VA, USA); HCT116 human colon cancer cells and A549 human lung carcinoma cell lines were cultured in RPMI 1640 medium supplemented with 10% FBS. Cell cultures were maintained in a humidified atmosphere of 5% CO2 at 37 °C. Cells were seeded at 2000 cells per well in 96-well plates in a volume of 200 μL per well. The test compounds were dissolved in DMSO and diluted with culture medium to different concentrations. After seeding for 24 h, the medium was removed, and […] of the test compound solution was added in duplicates and incubation continued for 72 h at 37 °C in a humidified atmosphere containing 5% CO2. Control cells were treated with vehicle alone. During the last 4 h of incubation, the cells were exposed to tetrazolium dye (MTT) solution (5 mg/mL, […] per well). The generated formazan crystals were dissolved in […] of dimethyl sulfoxide (DMSO), and the absorbance was read spectrophotometrically at 570 nm using an enzyme-linked immunosorbent assay plate reader. The data was calculated using Graph Pad Prism version 5.0 (GraphPad Softwrae, La Jolla, CA, USA). The IC50s were fitted using a non-linear regression model with a sigmoidal dose response.

[6] = Solubility of 1a; assay type: physicochemical

CC[C@H](C)[C@@H]([C@@H](CC(=O)N1CCC[C@H]1[C@H](OC)[C@@H](C)C(=O)N1CC(c2ccccc2)C1)OC)N(C)C(=O)[C@@H](NC(=O)C(C(C)C)N(C)C)C(C)C (stereo in doubt) [1a, (S)-2-((R)-2-(Dimethylamino)-3-methylbutanamido)-N-((3R,4S,5S)-3-methoxy-1-((S)-2-((1R,2R)-1-methoxy-2-methyl-3-oxo-3-(3-phenylazetidin-1-yl)propyl)pyrrolidin-1-yl)-5-methyl-1-oxoheptan-4-yl)-N,3-dimethylbutanamide]
Tumor volume ([1]; 1 mg/kg iv once a day, day 1): 149.56 mm3
Relative tumor volume ([1]; 1 mg/kg iv once a day, day 4): 1.27 ± 0.37
Tumor volume ([1]; 1 mg/kg iv once a day, day 4): 185.88 mm3
Relative tumor volume ([1]; 1 mg/kg iv once a day, day 7): 1.65 ± 0.57
Tumor volume ([1]; 1 mg/kg iv once a day, day 7): 248.97 mm3
Relative tumor volume ([1]; 1 mg/kg iv once a day, day 10): 2.29 ± 0.76
Tumor volume ([1]; 1 mg/kg iv once a day, day 10): 341.75 mm3
Relative tumor volume ([1]; 1 mg/kg iv once a day, day 13): 2.69 ± 0.9
Tumor volume ([1]; 1 mg/kg iv once a day, day 13): 395.43 mm3
Relative tumor volume ([1]; 1 mg/kg iv once a day, day 16): 3.62 ± 1.05
Tumor volume ([1]; 1 mg/kg iv once a day, day 16): 530.82 mm3
Relative tumor volume ([1]; 1 mg/kg iv once a day, day 19): 3.86 ± 1.34
Tumor volume ([1]; 1 mg/kg iv once a day, day 19): 563.52 mm3
Relative tumor volume ([1]; 1 mg/kg iv once a day, day 22): 4.69 ± 1.74
Tumor volume ([1]; 1 mg/kg iv once a day, day 22): 662.64 mm3
Relative tumor volume ([1]; 2 mg/kg iv once a day, day 4): 1.3 ± 0.22
Tumor volume ([1]; 2 mg/kg iv once a day, day 4): 214.97 mm3
Relative tumor volume ([1]; 2 mg/kg iv once a day, day 7): 1.8 ± 0.31
Tumor volume ([1]; 2 mg/kg iv once a day, day 7): 287.02 mm3
Relative tumor volume ([1]; 2 mg/kg iv once a day, day 10): 2.44 ± 0.46
Tumor volume ([1]; 2 mg/kg iv once a day, day 10): 381.31 mm3
Relative tumor volume ([1]; 2 mg/kg iv once a day, day 13): 3.22 ± 0.6
Tumor volume ([1]; 2 mg/kg iv once a day, day 13): 508.66 mm3
Relative tumor volume ([1]; 2 mg/kg iv once a day, day 16): 4.34 ± 0.97
Tumor volume ([1]; 2 mg/kg iv once a day, day 16): 682.39 mm3
Relative tumor volume ([1]; 2 mg/kg iv once a day, day 19): 5.15 ± 1.13
Tumor volume ([1]; 2 mg/kg iv once a day, day 19): 813.25 mm3
Relative tumor volume ([1]; 2 mg/kg iv once a day, day 22): 5.5 ± 2.15
Tumor volume ([1]; 2 mg/kg iv once a day, day 22): 862.75 mm3
Tumor volume ([1]; 5 mg/kg iv once a day, day 1): 205.7 mm3
Relative tumor volume ([1]; 5 mg/kg iv once a day, day 4): 1.37 ± 0.34
Tumor volume ([1]; 5 mg/kg iv once a day, day 4): 266.39 mm3
Relative tumor volume ([1]; 5 mg/kg iv once a day, day 7): 1.53 ± 0.41
Tumor volume ([1]; 5 mg/kg iv once a day, day 7): 287.02 mm3
Relative tumor volume ([1]; 5 mg/kg iv once a day, day 10): 2.05 ± 0.62
Tumor volume ([1]; 5 mg/kg iv once a day, day 10): 380.17 mm3
Relative tumor volume ([1]; 5 mg/kg iv once a day, day 13): 2.7 ± 0.88
Tumor volume ([1]; 5 mg/kg iv once a day, day 13): 487.47 mm3
Relative tumor volume ([1]; 5 mg/kg iv once a day, day 16): 2.97 ± 0.91
Tumor volume ([1]; 5 mg/kg iv once a day, day 16): 554.26 mm3
Relative tumor volume ([1]; 5 mg/kg iv once a day, day 19): 3.51 ± 0.82
Tumor volume ([1]; 5 mg/kg iv once a day, day 19): 668.46 mm3
Relative tumor volume ([1]; 5 mg/kg iv once a day, day 22): 4.19 ± 1.41
Tumor volume ([1]; 5 mg/kg iv once a day, day 22): 789.59 mm3
toxicity and weight loss ([1]; 1, 2 and 5 mg/kg/day iv for 22 days, A549 xenograft mice): no overt toxicity and weight-loss; also recorded: did not show any severe toxicity
Clint ([2]; Rat, apparent intrinsic clearance, 1 μM): 262.12 mL/min/kg
half-life at 1 μM ([2]; rat, microsomes): 9.48 min
T1/2 ([3]; Mouse liver microsomes, metabolic stability, 1 μM): less than 2 min
Clint ([3]; Mouse, apparent intrinsic clearance, 1 μM): 2981.16 mL/min/kg
half-life at 1 μM ([3]; mouse, microsomes): 1.83 min
Clint ([4]; Human, apparent intrinsic clearance, 1 μM): 92.93 mL/min/kg
half-life at 1 μM ([4]; human, microsomes): 18.7 min
IC50 [5]: 2.1 ± 0.4 nM
solubility ([6]; distilled water, pH 7.4, water): 346 µg/mL (≈ 485 µM)
solubility (in words) ([6]; limited exploration of higher in vivo dosage): poor solubility
